Test results as given in patent publication US20160222014A1, “COMPOUNDS FOR REGULATING FAK AND/OR SRC PATHWAYS” (ASANA BIOSCIENCES, LLC, priority 2013, published 2016).

Key:
[1] = target: JAK2 (Homo sapiens, UniProt O60674); assay: JAK2 biochemical potency; conditions: read-out: JAK2 HTRF IC50
[2] = target: T1, recombinant human FAK1 (Homo sapiens, UniProt Q05397); assay: FAK1 HTRF assay; assay type: biochemical
T1 construct: fused on or other part: N-terminal 6xHis tag
Procedure, shortened: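 IC50 values derive from HTRF % inhibition (ratio 665/620 nm, Eu–anti-phosphotyrosine 0.1 nM, SA-APC 12 nM). The kinase step ran 45 min at room temperature, pairing 10 nM His-FAK1(692–end) from baculovirus with 0.5 μM gastrin Tyr87 biotin-peptide and a reagent at 10 μM final, pH 7.4. Compound dilutions began at 10 μM.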

[3] = target: T2, Recombinant Src enzyme (Homo sapiens, UniProt P12931); assay: Src HTRF assay; assay type: biochemical
T2 construct: purchased Millipore 14-326; host or cells: Sf21 insect cells
Procedure, shortened: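 Run as for the FAK HTRF assay (same buffer, supplements, compound preparation and procedure), with dasatinib included. Reaction contained 0.5 μM biotin-tagged Tyk2 synthetic peptide, 5 nM Src made in Sf21 cells, and a pH7.4-buffer-prepared component at 10 μM final.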

[4] = target: T3, AURKB (Aurora B) enzyme (Homo sapiens, UniProt Q96GD4); assay: Aurora B HTRF assay; assay type: biochemical; conditions: read-out: AuroraB IC50
T3 construct: purchased Invitrogen PVR 130
Procedure, shortened: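 Enzyme (5 nM final) and ULight-labelled PLK Ser137 peptide (50 nM) reacted 1 h at room temperature; a 30 μM final component was also present. Detection used EDTA-containing buffer with europium anti-phospho-PLK(Ser137) antibody at 2 nM, 1 h, then time-resolved FRET readout.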

T1 sequence (Q05397 422-680 limits assumed): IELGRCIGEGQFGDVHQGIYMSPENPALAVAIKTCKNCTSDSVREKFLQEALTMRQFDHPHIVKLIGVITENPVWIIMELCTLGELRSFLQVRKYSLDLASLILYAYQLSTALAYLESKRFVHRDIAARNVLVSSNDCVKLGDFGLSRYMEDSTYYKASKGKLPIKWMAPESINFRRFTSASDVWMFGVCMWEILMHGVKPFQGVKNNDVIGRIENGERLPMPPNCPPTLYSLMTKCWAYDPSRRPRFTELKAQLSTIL
T3 sequence (Q96GD4 whole entry): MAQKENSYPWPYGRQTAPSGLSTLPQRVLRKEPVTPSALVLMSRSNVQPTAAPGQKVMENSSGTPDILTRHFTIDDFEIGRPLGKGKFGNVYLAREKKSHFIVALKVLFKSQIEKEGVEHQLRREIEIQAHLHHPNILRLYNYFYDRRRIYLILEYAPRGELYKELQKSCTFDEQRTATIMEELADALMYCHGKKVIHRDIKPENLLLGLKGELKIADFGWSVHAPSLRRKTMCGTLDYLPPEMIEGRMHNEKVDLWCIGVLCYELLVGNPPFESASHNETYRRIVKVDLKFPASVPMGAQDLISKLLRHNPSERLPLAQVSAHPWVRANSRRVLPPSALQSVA
T2 sequence (P12931 whole entry): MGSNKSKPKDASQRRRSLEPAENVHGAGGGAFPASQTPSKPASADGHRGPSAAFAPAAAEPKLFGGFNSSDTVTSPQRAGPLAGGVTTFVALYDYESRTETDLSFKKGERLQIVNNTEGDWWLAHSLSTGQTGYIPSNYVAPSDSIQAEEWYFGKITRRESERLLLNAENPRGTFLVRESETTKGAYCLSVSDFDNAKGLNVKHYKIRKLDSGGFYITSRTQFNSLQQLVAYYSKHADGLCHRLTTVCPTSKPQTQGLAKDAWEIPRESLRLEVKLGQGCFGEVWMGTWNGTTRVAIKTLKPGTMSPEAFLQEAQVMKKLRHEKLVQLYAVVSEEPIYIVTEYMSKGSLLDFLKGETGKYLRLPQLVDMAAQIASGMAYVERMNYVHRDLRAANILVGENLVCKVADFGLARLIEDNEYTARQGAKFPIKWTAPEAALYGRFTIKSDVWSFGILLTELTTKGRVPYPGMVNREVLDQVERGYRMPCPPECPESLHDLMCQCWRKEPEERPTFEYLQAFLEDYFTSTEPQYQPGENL
JAK2, sequence (O60674 whole entry, species assumed): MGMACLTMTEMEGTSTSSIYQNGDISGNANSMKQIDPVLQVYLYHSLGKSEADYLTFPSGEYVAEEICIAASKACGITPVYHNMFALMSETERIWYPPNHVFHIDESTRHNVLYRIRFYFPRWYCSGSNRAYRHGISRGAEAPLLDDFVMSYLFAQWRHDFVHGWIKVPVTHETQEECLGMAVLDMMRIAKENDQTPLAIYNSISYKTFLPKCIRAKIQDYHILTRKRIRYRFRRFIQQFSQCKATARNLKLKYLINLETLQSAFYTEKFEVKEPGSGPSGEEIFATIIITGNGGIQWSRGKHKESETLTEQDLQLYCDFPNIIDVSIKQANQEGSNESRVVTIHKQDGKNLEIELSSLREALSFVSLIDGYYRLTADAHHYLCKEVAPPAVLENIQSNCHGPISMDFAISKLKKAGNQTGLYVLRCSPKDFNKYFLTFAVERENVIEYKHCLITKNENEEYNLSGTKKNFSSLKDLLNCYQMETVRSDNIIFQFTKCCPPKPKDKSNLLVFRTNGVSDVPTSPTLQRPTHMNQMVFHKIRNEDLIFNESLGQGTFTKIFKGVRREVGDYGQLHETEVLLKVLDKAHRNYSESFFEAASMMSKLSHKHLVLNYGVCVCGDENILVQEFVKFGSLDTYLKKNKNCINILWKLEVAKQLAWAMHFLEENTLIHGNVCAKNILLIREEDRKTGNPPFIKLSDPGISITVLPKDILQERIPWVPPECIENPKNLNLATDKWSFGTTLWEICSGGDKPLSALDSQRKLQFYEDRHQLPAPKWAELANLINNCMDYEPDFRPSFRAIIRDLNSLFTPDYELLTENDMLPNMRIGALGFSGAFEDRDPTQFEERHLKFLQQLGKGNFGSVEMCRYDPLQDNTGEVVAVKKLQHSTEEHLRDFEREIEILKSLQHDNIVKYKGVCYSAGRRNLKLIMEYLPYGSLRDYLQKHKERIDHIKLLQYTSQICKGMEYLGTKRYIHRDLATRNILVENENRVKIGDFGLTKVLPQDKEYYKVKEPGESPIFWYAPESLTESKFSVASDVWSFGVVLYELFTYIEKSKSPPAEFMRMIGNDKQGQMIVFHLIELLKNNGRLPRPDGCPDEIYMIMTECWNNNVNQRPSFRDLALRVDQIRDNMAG

| SMILES | IC50 [1] | IC50 [2] | IC50 [3] | IC50 [4] |
| --- | --- | --- | --- | --- |
| CC(=O)Nc1ccc(Nc2ncc3ccn(Cc4cccnc4N(C)S(C)(=O)=O)c3n2)cc1 [Example 35] | < 0.02 µM | – | – | < 0.02 µM |
| CC(=O)Nc1ccc(Nc2cc3c(ccn3S(=O)(=O)c3cccc(OC(F)(F)F)c3)cn2)cc1 [Example 54] | > 1 µM | – | > 1 µM | – |
| CC(=O)Nc1cccc(Nc2cc3c(ccn3S(=O)(=O)c3cccc(OC(F)(F)F)c3)cn2)c1 [Example 55] | > 1 µM | – | > 1 µM | > 1 µM |
| CC(=O)Nc1cccc(Nc2cc3c(ccn3S(=O)(=O)c3ccccc3OC(F)(F)F)cn2)c1 [Example 58] | > 1 µM | – | > 1 µM | > 1 µM |
| CC(=O)Nc1ccc(Nc2cc3c(cn2)cnn3Cc2cccnc2N(C)S(C)(=O)=O)cc1 [Example 66] | > 1 µM | – | > 1 µM | > 1 µM |
| CC(=O)Nc1cccc(Nc2cc3c(cn2)c(C)nn3Cc2ccccc2OC(F)F)c1 [Example 78] | > 1 µM | > 1 µM | > 1 µM | – |
| CC(=O)Nc1ccc(Nc2cc3c(cn2)c(C)nn3Cc2ccccc2OC(F)F)cc1 [Example 81] | > 1 µM | > 1 µM | > 1 µM | – |
| CN(C)CCOc1cccc(Nc2ncc3ccn(Cc4cccnc4N(C)S(C)(=O)=O)c3n2)c1 [Example 91] | < 0.02 µM | – | – | < 0.02 µM |
| CN(C)c1ccc(Nc2ncc3ccn(Cc4cccnc4N(C)S(C)(=O)=O)c3n2)cc1 [Example 105] | < 0.02 µM | – | – | < 0.02 µM |
| O=S(=O)(c1ccccc1OC(F)(F)F)n1ccc2cnc(Nc3ccc(N4CCOCC4)cc3)cc21 [Example 113] | > 1 µM | – | > 1 µM | < 0.02 µM |
| CN(c1ncccc1Cn1ccc2cnc(Nc3ccc(N4CCNCC4)cc3)nc21)S(C)(=O)=O [Example 116] | < 0.02 µM | – | – | < 0.02 µM |
| O=c1[nH]c2ccc(Nc3cc4c(ccn4S(=O)(=O)c4ccccc4OC(F)(F)F)cn3)cc2[nH]1 [Example 118] | > 1 µM | < 0.02 µM | > 1 µM | < 0.02 µM |
| CN(c1ccccc1Cn1ccc2cnc(Nc3ccc(N4CCNCC4)cc3)nc21)S(C)(=O)=O [Example 214] | < 0.02 µM | < 0.02 µM | < 0.02 µM | – |
| O=S(=O)(c1cccc2cccnc12)n1ccc2cnc(Nc3ccc(CN4CCC(F)(F)CC4)cc3)nc21 [Example 248] | < 0.02 µM | < 0.02 µM | – | < 0.02 µM |
| COc1cc(Nc2cc3c(ccn3S(=O)(=O)c3cccc4cccnc34)cn2)ccc1N1CCNCC1 [Example 328] | > 1 µM | < 0.02 µM | – | < 0.02 µM |
| COc1cc(N2CCNCC2)ccc1Nc1ncc2ccn(Cc3cccnc3N(C)S(C)(=O)=O)c2n1 [Example 337] | > 1 µM | < 0.02 µM | > 1 µM | – |
| COc1cc(N2CCN(CCO)CC2)ccc1Nc1ncc2ccn(S(=O)(=O)c3cccc4cccnc34)c2n1 [Example 347] | > 1 µM | < 0.02 µM | > 1 µM | – |
| C[C@@H]1CN(c2ccc(Nc3ncc4ccn(Cc5ccccc5N(C)S(C)(=O)=O)c4n3)cc2)CCN1 [Example 448, (R)—N-methyl-N-(2-((2-((4-(3-methylpiperazin-1-yl)phenyl)amino)-7H-pyrrolo[2,3-d]pyrimidin-7-yl)methyl)phenyl)methanesulfonamide] | < 0.02 µM | < 0.02 µM | – | < 0.02 µM |
| C[C@H]1CN(c2ccc(Nc3ncc4ccn(Cc5ccccc5N(C)S(C)(=O)=O)c4n3)cc2)CCN1 [Example 467] | < 0.02 µM | < 0.02 µM | – | < 0.02 µM |
| CN(C)C1CCN(c2ccc(Nc3ncc4ccn(Cc5ccccc5N(C)S(C)(=O)=O)c4n3)cc2)CC1 [Example 468] | < 0.02 µM | < 0.02 µM | – | < 0.02 µM |
| C[C@@H]1CN(c2ccc(Nc3ncc4ccn(Cc5cccnc5N(C)S(C)(=O)=O)c4n3)cc2)CCN1 [Example 475] | < 0.02 µM | – | – | < 0.02 µM |
| CN(C)C1CCN(c2ccc(Nc3ncc4c(n3)N(S(=O)(=O)c3cccc5cccnc35)CC4(C)C)cc2)CC1 [Example 500] | > 1 µM | < 0.02 µM | – | – |

The remaining lines, values ahead:

| IC50 [1] | IC50 [2] | IC50 [3] | IC50 [4] | SMILES |
| --- | --- | --- | --- | --- |
| < 0.02 µM | < 0.02 µM | < 0.02 µM | < 0.02 µM | CN(c1ncccc1Cn1ccc2cnc(Nc3ccc4c(c3)CCC(=O)N4)nc21)S(C)(=O)=O [Example 5] |
| > 1 µM | – | > 1 µM | > 1 µM | Cc1nn(Cc2ccccc2OC(F)F)c2cc(Nc3ccc4c(c3)CCC(=O)N4)ncc12 [Example 80] |
| < 0.02 µM | < 0.02 µM | – | – | CC(=O)Nc1cccc(Nc2ncc3ccn(Cc4ccccc4N(C)S(C)(=O)=O)c3n2)c1 [Example 100] |
| < 0.02 µM | < 0.02 µM | – | – | CN(c1ccccc1Cn1ccc2cnc(Nc3ccc4c(c3)CCC(=O)N4)nc21)S(C)(=O)=O [Example 103] |
| < 0.02 µM | < 0.02 µM | – | < 0.02 µM | COc1ccccc1S(=O)(=O)n1ccc2cnc(Nc3ccc4c(c3)CCC(=O)N4)nc21 [Example 106] |
| < 0.02 µM | – | – | < 0.02 µM | CN(c1ncccc1Cn1ccc2cnc(Nc3ccc4ncsc4c3)nc21)S(C)(=O)=O [Example 123] |
| < 0.02 µM | – | – | < 0.02 µM | CN(c1ncccc1Cn1ccc2cnc(Nc3cccc(S(N)(=O)=O)c3)nc21)S(C)(=O)=O [Example 165] |
| < 0.02 µM | < 0.02 µM | – | < 0.02 µM | O=c1[nH]c2ccc(Nc3ncc4ccn(S(=O)(=O)c5ccccc5OC(F)F)c4n3)cc2[nH]1 [Example 180] |
| < 0.02 µM | < 0.02 µM | – | < 0.02 µM | O=S(=O)(c1ccccc1OC(F)F)n1ccc2cnc(Nc3ccc(N4CCNCC4)cc3)nc21 [Example 184] |
| < 0.02 µM | < 0.02 µM | – | < 0.02 µM | O=S(=O)(c1cccc2cccnc12)n1ccc2cnc(Nc3ccc(N4CCNCC4)cc3)nc21 [Example 193] |
| < 0.02 µM | < 0.02 µM | < 0.02 µM | < 0.02 µM | O=S(=O)(c1cccc2cccnc12)n1ccc2cnc(Nc3ccc(N4CCNCC4)c(F)c3)nc21 [Example 194] |
| < 0.02 µM | – | < 0.02 µM | < 0.02 µM | Cc1cc(Nc2ncc3ccn(Cc4cccnc4N(C)S(C)(=O)=O)c3n2)ccc1N1CCNCC1 [Example 197] |
| < 0.02 µM | < 0.02 µM | – | < 0.02 µM | CN(C)Cc1ccc(Nc2ncc3ccn(S(=O)(=O)c4cccc5cccnc45)c3n2)cc1 [Example 205] |
| < 0.02 µM | – | < 0.02 µM | < 0.02 µM | CN(c1ncccc1Cn1ccc2cnc(Nc3ccc(C4=CCNCC4)cc3)nc21)S(C)(=O)=O [Example 206] |
| > 1 µM | – | – | < 0.02 µM | O=S(=O)(c1cccc2cccnc12)n1ncc2cnc(Nc3ccc(N4CCNCC4)cc3)cc21 [Example 210] |
| < 0.02 µM | – | < 0.02 µM | < 0.02 µM | N#Cc1ccccc1S(=O)(=O)n1ncc2cnc(Nc3ccc4c(c3)CCC(=O)N4)nc21 [Example 220] |
| < 0.02 µM | – | – | < 0.02 µM | O=S(=O)(c1cccc2cnccc12)n1ccc2cnc(Nc3ccc(N4CCNCC4)cc3)nc21 [Example 235] |
| < 0.02 µM | < 0.02 µM | – | < 0.02 µM | O=S(=O)(c1cccc2cccnc12)n1ccc2cnc(Nc3ccc(CN4CCNCC4)cc3)nc21 [Example 244] |
| < 0.02 µM | < 0.02 µM | – | < 0.02 µM | O=S(=O)(c1cccc2cccnc12)n1ccc2cnc(Nc3ccc(N4CC5CC4CN5)cc3)nc21 (stereo not shown) [Example 246] |
| < 0.02 µM | < 0.02 µM | – | < 0.02 µM | CN(c1ncccc1Cn1ccc2cnc(Nc3ccc4c(c3)CC(=O)N4)nc21)S(C)(=O)=O [Example 304] |
| < 0.02 µM | < 0.02 µM | – | < 0.02 µM | N#Cc1ccccc1S(=O)(=O)n1ccc2cnc(Nc3ccc(N4CCNCC4)cc3)cc21 [Example 314] |
| < 0.02 µM | < 0.02 µM | – | < 0.02 µM | N#Cc1ccccc1S(=O)(=O)n1cc(F)c2cnc(Nc3ccc(N4CCNCC4)cc3)nc21 [Example 319] |
| < 0.02 µM | < 0.02 µM | – | < 0.02 µM | COc1ccccc1S(=O)(=O)n1ccc2cnc(Nc3ccc(N4CCNCC4)cc3)nc21 [Example 333] |
| > 1 µM | < 0.02 µM | > 1 µM | – | COc1cc(N2CCNCC2)ccc1Nc1ncc2ccn(S(=O)(=O)c3ccccc3C#N)c2n1 [Example 336] |
| > 1 µM | < 0.02 µM | > 1 µM | – | COc1cc(N2CCNCC2)ccc1Nc1cc2c(ccn2S(=O)(=O)c2ccccc2C#N)cn1 [Example 348] |
| < 0.02 µM | < 0.02 µM | – | < 0.02 µM | Cc1cc(S(=O)(=O)n2ccc3cnc(Nc4ccc(N5CCNCC5)cc4)nc32)c2ncccc2c1 [Example 357] |
| > 1 µM | < 0.02 µM | – | < 0.02 µM | COc1cc(Nc2cc3c(ccn3S(=O)(=O)c3ccccc3C#N)cn2)ccc1N1CCNCC1 [Example 391] |
| < 0.02 µM | – | – | < 0.02 µM | C[C@H]1CNCCN1c1ccc(Nc2ncc3ccn(Cc4ccccc4N(C)S(C)(=O)=O)c3n2)cc1 [Example 481] |
